Data reported in paper PMC11594329, “Development of LAT1-Selective Nuclear Medicine Therapeutics Using Astatine-211” (International Journal of Molecular Sciences, 2024).

What was measured:
[1] = Stability of labeled compound by TLC after labeling; type: physicochemical; conditions: after 24 h and 48 h
Experimental: All precursors were labeled by “Shirakami Reaction” and purified using an HLB column (Waters Corp, Waltham, MA, USA). All structures are shown in Supplementary Figure S1. After purification, the solution was supplemented with 1% (v/w) of ascorbic acid. The retention time of (S)-2-amino-3-(3-(astato-^211At)-4-methoxyphenyl)-2-methylpropanic acid (^211At-AAMT-OMe-L) determined using High Performance Liquid Chromatography (HPLC) (concentration: 1 MBq/mL, Flow: 1 mL/min; absorbance = 226 nm) was 12.91 min. A COSMOSIL Packed 5C18-MS-II (4.6 mm × 150 mm) Column was used at 40 °C. Mobile phase A was 0.1% formic acid and B was acetonitrile (10–60%, 20 min). […] The stability of ^211At-AAMT-OMe-L in its unpurified state was analyzed by thin layer chromatography (TLC). BAS IP MS 2025E (GE Healthcare Technologies Inc., Chicago, IL, USA) was used for imaging. […] Because optical isomers were only examined for ^211At-AAMT-OMe-L and the remaining labeled products were all L-isomers, the DL notation was omitted when optical isomers were not compared. ^211At-AAMT-O-Me-L in the crude product solution was detected at Rf = 0.80, yielding a radiochemical yield (RCY) of 81.3%. The radiochemical yield and purity of the purified product were 81% and 98%, respectively. ^211At-AAMT-O-Me-D in the crude product solution was detected at Rf = 0.80, yielding a radiochemical yield (RCY) of 79.6%. […]

[2] = Single dose intravenous toxicity study (hematology, pathology) in ICR mice; type: in vivo; conditions: ICR mice male and female, 1 MBq/mouse
Experimental: Toxicity studies were performed using ^211At-AAMT-O-Me-L, which appeared to have the highest safety profile based on pharmacokinetic results. Labeled material was administered to ICR mice (male and female) at a dose of 1 MBq/mouse with a clear therapeutic effect, and samples were collected the day after administration and 5, 14, and 28 days later for blood and pathological examination.
Development of LAT1-selective nuclear medicine therapeutics
Kazuko Kaneda-Nakashima 1, 2*, Yoshifumi Shirakami 2, Kentaro Hisada 1, Sifan Feng 1, Yuichiro Kadonaga 2, Kazuhiro Ooe 2, Tadashi Watabe 3, Yoshiyuki Manabe 2, 4, Atsushi Shimoyama 2, 4, Masashi Murakami 2, Atsushi Toyoshima 2, Hiromitsu Haba 5, Yoshikatsu Kanai 6, Koichi Fukase 2, 4 […]
S1. Hematological analysis
S1.1. Animal preparation and administration of 211At-AAMT-O-Me-L
This study was conducted in compliance with the Animal Experiment […]
(Hamamatsu, Japan), respectively. […] General condition and body weight were monitored. […]
After the prescribed observation time, blood was collected under anesthesia and the animals were euthanized. […] Red blood cell count (RBC), hemoglobin concentration (Hb), hematocrit (Ht), white blood cell count (WBC), platelet count (platelet), lymphocytes (%Lymph), monocytes (%Mon), and granulocytes (%Gra) were calculated (Supplementary Table S2). […]

With `COc1ccc(C[C@](C)(N)C(=O)O)cc1[211At]` [^211At-AAMT-O-Me-L, (S)-2-amino-3-(3-(astato-^211At)-4-methoxyphenyl)-2-methylpropanic acid] the “Stability in unpurified state by TLC” value [1] was “almost no degradation”, the “Toxicity findings (blood and pathological examination)” value ([2]; day after administration) was “no effects were observed” and the “Toxicity findings (blood and pathological examination)” value ([2]; five days after administration, subsequently cured) was “hematopoietic disorders originating from radiation exposure were observed”.
